# Laboratory results published in publication PMC7699649 (Communications Biology, 2020).
# No end group written: not given here.
# Tests used:
# [1] = test system: Acinetobacter baumannii ATCC 17978; conditions: Supplementary Table 3; medium not stated; at least three biological replicates
# Protocol: (§1) The antibacterial activity of the peptides was assessed through a modified twofold broth microdilution assay with modal MICs generated from at least three biological replicate experiments[20],[25]. The method broadly followed EUCAST methodology, with non-cation-adjusted Mueller Hinton or RPMI replacing cation-adjusted Mueller Hinton. Peptides and antibiotics were diluted in a twofold dilution in media down a 96 well plate. Bacteria were then added, back-diluted from an overnight culture, at a starting concentration of 5 × 10^5 CFU/ml. Plates were incubated, static at 37 C, for 20 h and the OD600 was determined using a Clariostar plate reader (BMG Labtech). […] Synergy was measured using standard microdilution checkerboard assays under the same conditions as the MICs[54]. Twofold dilution series of each peptide or antibiotic were prepared in separate 96 well plates and then combined into one before addition of bacteria. The growth/no growth interface was determined using the same definition as the MIC. The fractional inhibitory concentration was calculated from the most synergistic well on the plate for three independent repeats, and presented as the average +/− standard deviation. FIC is calculated as (MIC of compound A in combination with B/MIC of compound A alone) + (MIC of compound B in combination with A/MIC of compound B alone). MICs were determined on the same plates as the FICs to increase reproducibility.
# [2] = test system: MS Staphylococcus aureus ATCC 9144; conditions: Supplementary Table 3; medium not stated; at least three biological replicates
# Protocol: as §1
# [3] = test system: Pseudomonas aeruginosa PAO1; conditions: Supplementary Table 3; medium not stated; at least three biological replicates
# Protocol: as §1
# [4] = test system: Pseudomonas aeruginosa NCTC 13437; conditions: Supplementary Table 3; medium not stated; at least three biological replicates
# Protocol: as §1
# [5] = test system: Klebsiella pneumoniae NCTC 13368; conditions: Supplementary Table 3; medium not stated; at least three biological replicates
# Protocol: as §1
# Klebsiella pneumoniae M6 = conditions: Supplementary Table 3; medium not stated; at least three biological replicates
# Protocol: as §1
# [6] = test system: VR Enterococcus faecium NCTC 12204; conditions: Supplementary Table 3; medium not stated; at least three biological replicates
# Protocol: as §1
# [7] = test system: EMR Staphylococcus aureus-15 NCTC 13616; conditions: Supplementary Table 3; medium not stated; at least three biological replicates
# Protocol: as §1
# [8] = test system: Acinetobacter baumannii AYE; conditions: Supplementary Table 3; medium not stated; at least three biological replicates
# Protocol: as §1
# [9] = test system: Escherichia coli NCTC 12923; conditions: Supplementary Table 3; medium not stated; at least three biological replicates
# Protocol: as §1
# [10] = test system: EMR Staphylococcus aureus-16 NCTC 13277; conditions: Supplementary Table 3; medium not stated; at least three biological replicates
# Protocol: as §1
# [11] = test system: VS Enterococcus faecalis NCTC 775; conditions: Supplementary Table 3; medium not stated; at least three biological replicates
# Protocol: as §1
# human red blood cells = assay: Haemolysis assay; assay type: cell-based; conditions: human red blood cells in PBS, 1 h 37 °C, OD550, relative to 0.1% Triton-X-100; for concentration at which 10% haemolysis is achieved: three biological replicates
# Protocol: Haemolysis was tested by incubating titrations of AMPs in PBS with freshly collected human red blood cells for 1 h at 37 °C. Control wells were treated with 0.1% Triton-X-100 to ensure complete lysis, or PBS-only to represent no lysis. Samples were spun down to remove non-lysed cells and the OD550 of the supernatant was measured using a Clariostar plate reader. The percentage of haemolysis was calculated as % haemolysis = (AP − AB)/(AC − AB) × 100, where AP is the absorbance value for a known peptide concentration, AC is the absorbance of the 0.1% Triton-X-100 control, AB is the absorbance of the PBS control. Data presented are averages and standard error from three biological replicate experiments.
compound,measurement,setting,value
NC[C@H]1O[C@H](O[C@H]2[C@H](O)[C@@H](O[C@H]3O[C@H](CO)[C@@H](O)[C@H](N)[C@H]3O)[C@H](N)C[C@@H]2N)[C@H](N)C[C@@H]1O [Tobramycin],"Antibiogram, antibiotic concentration (MIC)",[1],4 µg/mL
same,"Antibiogram, antibiotic concentration (MIC)",[2],0.25 to 0.5 µg/mL
same,"Antibiogram, antibiotic concentration (MIC)",[3],2 µg/mL
same,"Antibiogram, antibiotic concentration (MIC)",[4],64 µg/mL
same,"Antibiogram, antibiotic concentration (MIC)",[5],64 µg/mL
same,"Antibiogram, antibiotic concentration (MIC)",Klebsiella pneumoniae M6,8 µg/mL
same,"Antibiogram, antibiotic concentration (MIC)",[6],64 µg/mL
same,"Antibiogram, antibiotic concentration (MIC)",[7],0.5 µg/mL
same,"Antibiogram, antibiotic concentration (MIC)",[8],64 µg/mL
same,"Antibiogram, antibiotic concentration (MIC)",[9],16 µg/mL
same,"Antibiogram, antibiotic concentration (MIC)",[10],0.25 µg/mL
same,"Antibiogram, antibiotic concentration (MIC)",[11],4 µg/mL
CC(C)(O/N=C(\C(=O)N[C@@H]1C(=O)N2C(C(=O)[O-])=C(C[n+]3ccccc3)CS[C@H]12)c1csc(N)n1)C(=O)O [Ceftazidime],"Antibiogram, antibiotic concentration (MIC)",[1],< 0.5 µg/mL
same,"Antibiogram, antibiotic concentration (MIC)",[2],16 µg/mL
same,"Antibiogram, antibiotic concentration (MIC)",[3],1 µg/mL
same,"Antibiogram, antibiotic concentration (MIC)",[4],> 128 µg/mL
same,"Antibiogram, antibiotic concentration (MIC)",[5],512 µg/mL
same,"Antibiogram, antibiotic concentration (MIC)",Klebsiella pneumoniae M6,< 0.5 µg/mL
same,"Antibiogram, antibiotic concentration (MIC)",[6],> 128 µg/mL
same,"Antibiogram, antibiotic concentration (MIC)",[7],128 µg/mL
same,"Antibiogram, antibiotic concentration (MIC)",[8],> 128 µg/mL
same,"Antibiogram, antibiotic concentration (MIC)",[10],8 µg/mL
same,"Antibiogram, antibiotic concentration (MIC)",[11],32 µg/mL
"GWGSFFKKAAHVGKHVGKAALTHYL-NH2 [Pleurocidin, reference compound]",haemolysis at the highest concentration tested 400 µg/ml,human red blood cells,50%
same,concentration at which 10% haemolysis is achieved,human red blood cells,120 µg/mL
GWGSFFRRAAHVGRHVGRAALTHYL-NH2 [Pleurocidin-KR],concentration at which 10% haemolysis is achieved,human red blood cells,192 µg/mL
O=C(O)c1cn(C2CC2)c2cc(N3CCNCC3)c(F)cc2c1=O [Ciprofloxacin],"Antibiogram, antibiotic concentration (MIC)",[1],0.5 µg/mL
same,"Antibiogram, antibiotic concentration (MIC)",[2],1 µg/mL
same,"Antibiogram, antibiotic concentration (MIC)",[3],0.5 µg/mL
same,"Antibiogram, antibiotic concentration (MIC)",[4],64 µg/mL
same,"Antibiogram, antibiotic concentration (MIC)",[5],0.5 µg/mL
same,"Antibiogram, antibiotic concentration (MIC)",Klebsiella pneumoniae M6,< 0.5 µg/mL
same,"Antibiogram, antibiotic concentration (MIC)",[6],1 µg/mL
same,"Antibiogram, antibiotic concentration (MIC)",[7],64 µg/mL
same,"Antibiogram, antibiotic concentration (MIC)",[8],128 µg/mL
same,"Antibiogram, antibiotic concentration (MIC)",[9],≤ 0.125 µg/mL
same,"Antibiogram, antibiotic concentration (MIC)",[10],128 µg/mL
same,"Antibiogram, antibiotic concentration (MIC)",[11],2 µg/mL
GWGSFFKKAAHAGKHAGKAALTHYL-NH2 [Pleurocidin-VA],haemolysis at the highest concentration tested 400 µg/ml,human red blood cells,Neither pleurocidin-VA nor D-pleurocidin-VA induce detectable haemolysis
Colistin,"Antibiogram, antibiotic concentration (MIC)",[1],1 µg/mL
same,"Antibiogram, antibiotic concentration (MIC)",[3],2 µg/mL
same,"Antibiogram, antibiotic concentration (MIC)",[4],4 µg/mL
same,"Antibiogram, antibiotic concentration (MIC)",[5],1 µg/mL
same,"Antibiogram, antibiotic concentration (MIC)",Klebsiella pneumoniae M6,2 µg/mL
same,"Antibiogram, antibiotic concentration (MIC)",[7],> 128 µg/mL
same,"Antibiogram, antibiotic concentration (MIC)",[8],1 µg/mL
same,"Antibiogram, antibiotic concentration (MIC)",[9],0.0625 µg/mL
CNC(C)C1CCC(N)C(OC2C(N)CC(N)C(OC3OCC(C)(O)C(NC)C3O)C2O)O1 (centres unmarked) [Gentamicin],"Antibiogram, antibiotic concentration (MIC)",[1],0.5 µg/mL
same,"Antibiogram, antibiotic concentration (MIC)",[2],0.25 µg/mL
same,"Antibiogram, antibiotic concentration (MIC)",[3],4 µg/mL
same,"Antibiogram, antibiotic concentration (MIC)",[4],256 µg/mL
same,"Antibiogram, antibiotic concentration (MIC)",[5],4 µg/mL
same,"Antibiogram, antibiotic concentration (MIC)",Klebsiella pneumoniae M6,0.25 µg/mL
same,"Antibiogram, antibiotic concentration (MIC)",[6],4 µg/mL
same,"Antibiogram, antibiotic concentration (MIC)",[7],0.25 µg/mL
same,"Antibiogram, antibiotic concentration (MIC)",[8],> 512 µg/mL
same,"Antibiogram, antibiotic concentration (MIC)",[9],1 µg/mL
same,"Antibiogram, antibiotic concentration (MIC)",[10],0.25 µg/mL
same,"Antibiogram, antibiotic concentration (MIC)",[11],4 µg/mL
